Assay results reported in patent publication US8076331B2, “Substituted pyridazine derivatives” (Cephalon, Inc., priority 2008, dated 2011).
Structures can show the parent of a compound that is named as a salt.

Legend:
human H3 receptor = biological target: T1, human H3 receptor (Homo sapiens, UniProt Q9Y5N1); test: Human H3 radioligand binding ([3H]-N-alpha-methylhistamine, CHO cell membranes); conditions: membranes of CHO cells stably expressing the human H3 receptor; [3H]-N-alpha-methylhistamine approx. 1 nM
T1 construct: expressed in transfected cells
Description: Methods: CHO cells stably expressing the human H3 receptor (GenBank: NM_007232) were harvested and cell pellets were frozen (—80° C.). Cell pellets were resuspended in 5 mM Tris-HCl, pH 7.5 with […] and a cocktail of protease inhibitors (Complete Protease Inhibitior Tablets, Roche Diagnostics). Cells were disrupted using a polytron cell homogenizer and the suspension was centrifuged at 1000×g for 10 minutes at 4° C. The pellet was discarded and the supernatant centrifuged at 40,000×g for 30 min at 4° C. This membrane pellet was washed in membrane buffer containing 50 mM Tris-HCl, pH 7.5 with 0.6 mM EDTA, 5 mM MgCl2 and protease inhibitors, recentrifuged as above and the final pellet resuspended in membrane buffer plus 250 mM sucrose and frozen at −80° C.
Radioligand Binding. Membranes were resuspended in 50 mM Tris HCl (pH 7.4), 5 mM MgCl2, 0.1% BSA. The membrane suspensions (10 μg protein per well) were incubated in a 96 well microtiter plate with [^3H]-N-alpha-methylhistamine (approximately 1 nM final concentration), test compounds at various concentrations (0.01 nM-30 μM) and scintillation proximity beads (Perkin Elmer, FlashBlueGPCR Scintillating Beads) in a final volume of 80 μl for 4 hours at room temperature, protected from light. Non-specific binding was determined in the presence of 10 μM clobenpropit. Radioligand bound to receptor, and therefore in proximity to the scintillation beads, was measured using a MicroBeta scintillation counter.

T1 sequence (Q9Y5N1 whole entry): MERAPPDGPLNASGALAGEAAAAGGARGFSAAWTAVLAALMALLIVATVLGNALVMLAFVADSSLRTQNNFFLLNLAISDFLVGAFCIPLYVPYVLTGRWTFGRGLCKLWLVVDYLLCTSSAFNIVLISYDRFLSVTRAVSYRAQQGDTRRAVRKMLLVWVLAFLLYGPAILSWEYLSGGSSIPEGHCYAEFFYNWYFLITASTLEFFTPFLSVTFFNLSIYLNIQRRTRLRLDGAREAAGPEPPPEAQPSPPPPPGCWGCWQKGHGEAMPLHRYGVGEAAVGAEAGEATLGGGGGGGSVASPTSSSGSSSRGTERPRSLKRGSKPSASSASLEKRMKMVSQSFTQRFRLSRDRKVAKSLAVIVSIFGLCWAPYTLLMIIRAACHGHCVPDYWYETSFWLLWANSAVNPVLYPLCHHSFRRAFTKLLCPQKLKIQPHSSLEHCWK

Compound	Ki (human H3 receptor)	melting point
C[C@@H]1CCCN1CCCOc1ccc(-c2ccc(OCc3ccc(F)cc3)nn2)cc1 [Example 26, 3-(4-Fluoro-benzyloxy)-6-{4-[3-((R)-2methyl-pyrrolidin-1-yl)-propoxy]phenyl}pyridazine]	< 50 nM	118 °C
[O-][S+](Cc1ccccc1)c1ccc(-c2ccc(OCCCN3CCCCC3)cc2)nn1 (stereo not shown) [Example 36, 3-Phenylmethanesulfinyl-6-[4-(3-piperidin-1-yl-propoxy)phenyl]pyridazine]	< 50 nM	186 °C
C[C@@H]1CCCN1CCCOc1ccc(-c2ccc(NCc3ccccc3)nn2)cc1 [Example 29, Benzyl-(6-{4-[3-((R)-2-methyl-pyrrolidin-1-yl)-propoxy]-phenyl}-pyridazin-3-yl)amine]	< 50 nM	139.5 to 141 °C
CSc1ccc(-c2ccc(OCCCN3CCCCC3)cc2)nn1 [Example 31, 3-Methylsulfanyl-6-[4-(3-piperidin-1-yl-propoxy)phenyl]pyridazine]	51 to 100 nM	122 °C
CSc1nnc(-c2ccc(OCCCN3CCC[C@H]3C)cc2)c2c1CCC2 [Example 32, 1-{4-[3-((R)-2-Methyl-pyrrolodin-1-yl)-propoxy]-phenyl}-4-methylsulfanyl-6,7-dihydro-5H-cyclopenta[d]pyridazine]	< 50 nM	
C[C@@H]1CCCN1CCCOc1ccc(-c2ccc(OCc3ccc(C(F)(F)F)cc3)nn2)cc1 [Example 27, 3-{4-[3-((R)-2-Methyl-pyrrolidin-1-yl)-propoxy]-phenyl}-6-(4-trifluoromethyl-benzyloxy)pyridazine]	< 50 nM	160 °C
COc1cc(-c2ccc(Cl)nn2)ccc1OCCCN1CCC[C@H]1C [Example 10, 3-Chloro-6-{3-methoxy-4-[3-((R)-2-methyl-pyrrolidin-1-yl)propoxy}phenyl}pyridazine]	> 101 nM	122 °C
N#Cc1cc(-c2ccc(Cl)nn2)ccc1OCCCN1CCCCC1 [Example 14, 5-(6-Chloro-pyridazin-3-yl)-2-(3-piperidin-1-yl-propoxy)benzonitrile]	> 101 nM	140 to 142 °C
C[C@@H]1CCCN1CCCOc1ccc(-c2ccc(-c3ccccc3)nn2)cc1 [Example 4, 3-{4-[3-((R)-2-Methyl-pyrrolidin-1-yl)-propoxy]-phenyl}-6-phenylpyridazine]	< 50 nM	158 to 160 °C
C[C@@H]1CCCN1CCCOc1ccc(-c2ccc(SCc3ccccc3)nn2)cc1 [Example 33, 3-Benzylsulfanyl-6-{4-[3-((R)-2-methyl-pyrrolidin-1-yl)-propoxy]phenyl}pyridazine]	< 50 nM	104 °C
Clc1nnc(-c2ccc(OCCCN3CCCCC3)cc2)c2c1CCC2 [Example 15, 1-Chloro-4-[4-(3-piperidin-1-yl-propoxy)-phenyl]-6,7-dihydro-5H-cyclopenta[d]pyridazine]	< 50 nM	120 °C
C[C@@H]1CCCN1CCCOc1ccc(-c2cccnn2)cc1 [Example 45, 3-{4-[3-((R)-2-Methyl-pyrrolidin-1-yl)-propoxy]-phenyl}-pyridazine]	< 50 nM	
CC1CCCCN1C[C@H](C)COc1ccc(-c2ccc(Cl)nn2)cc1 (stereo partly drawn) [Example 44, 3-Chloro-6-{4-[(S)-2-methyl-3-(2-methylpiperidin-1-yl)propoxy]-phenyl}pyridazine]	> 101 nM	108 to 110 °C
C[C@@H]1CCCN1CCCOc1ccc(-c2cccnn2)cc1 (as salt: HCl) [Example 45, 3-{4-[3-((R)-2-Methyl-pyrrolidin-1-yl)-propoxy]-phenyl}-pyridazine]		198 to 201 °C
C[C@@H]1CCCN1CCCOc1ccc(-c2ccc(OCc3ccccc3)nn2)cc1 [Example 21, 3-Benzyloxy-6-{4-[3-((R)-2-methyl-pyrrolidin-1-yl)-propoxy]phenyl}pyridazine]	< 50 nM	114 °C
O=S(=O)(Cc1ccccc1)c1ccc(-c2ccc(OCCCN3CCCCC3)cc2)nn1 [Example 38, 3-Phenylmethanesulfonyl-6-[4-(3-piperidin-1-yl-propoxy)phenyl]pyridazine]	< 50 nM	134 °C
C[C@@H]1CCCN1CCCOc1ccc(-c2ccc(N)nn2)cc1 [Example 7, 6-{4-[3-((R)-2-Methyl-pyrrolidin-1-yl)-propoxy]-phenyl}pyridazin-3-ylamine]	< 50 nM	121 to 122 °C
C[C@@H]1CCCN1CCCOc1ccc(-c2ccc(N3CCOCC3)nn2)cc1 [Example 6, 4-(6-{4-[3-((R)-2-Methylpyrrolidin-1-yl)-propoxy]phenyl}pyridazin-3-yl)morpholine]	< 50 nM	

Compound	Ki (human H3 receptor)	melting point
COc1cc(-c2ccc(Cl)nn2)ccc1OCCCN1CCCCC1 [Example 11, 3-Chloro-6-[3-methoxy-4-(3-piperidin-1-yl-propoxy)phenyl]pyridazine]	> 101 nM	120 °C
Cc1cc(OCCCN2CCCCC2)ccc1-c1ccc(Cl)nn1 [Example 12, 3-Chloro-6-[2-methyl-4-(3-piperidin-1-yl-propoxy)phenyl]pyridazine]	< 50 nM	85 °C
C[C@@H]1CCCN1CCCOc1ccc(-c2nnc(Cl)c3c2CCC3)cc1 [Example 17, 1-Chloro-4-{4-[3-((R)-2-metyl-pyrrolidin-1-yl)-propoxy]-phenyl}-6,7-dihydro-5H-cyclopenta[d]pyridazine]	< 50 nM	65 °C
C[C@@H]1CCCN1CCCOc1ccc(-c2ccc(N3CCCC3)nn2)cc1 [Example 5, 3-{4-[3-((R)-2-Methyl-pyrrolidin-1-yl)-propoxy]-phenyl}-6-pyrrolidin-1-yl-pyridazine]	< 50 nM	175 to 180 °C
C[C@@H]1CCCN1CCCOc1ccc(-c2ccc(Cl)nn2)cc1 [Example 1, 3-Chloro-6-{4-[3-((R)-2-methyl-pyrrolidin-1-yl)propoxy]-phenyl}pyridazine]	< 50 nM	
COc1ccc(-c2ccc(OCCCN3CCCCC3)cc2)nn1 [Example 23]	< 50 nM	116 °C
COc1ccc(-c2ccc(OCCCN3CCC[C@H]3C)cc2)nn1 [Example 22]	< 50 nM	121 °C
Clc1ccc(-c2ccc(OCCCN3CCCCC3)cc2)nn1 [Example 2, 3-Chloro-6-[4-(3-piperidin-1-yl-propoxy)-phenyl]pyridazine]	< 50 nM	140 °C
C[C@@H]1CCCN1CCCOc1ccc(-c2ccc(S(=O)(=O)Cc3ccccc3)nn2)cc1 [Example 37, 3-{4-[3-((R)-2-Methyl-pyrrolidin-1-yl)-propoxy]phenyl}-6-phenylmethanesulfonyl-pyridazine]	< 50 nM	
C[C@@H]1CCCN1CCCOc1ccc(-c2nnc(SCc3ccccc3)c3c2CCC3)cc1 [Example 42, 1-Benzylsulfanyl-4-{4-[3-((R)-2-methyl-pyrrolidin-1-yl)propoxy]-phenyl}-6,7-dihydro-5H-cyclopenta[d]pyridazine]	< 50 nM	122 °C
C[C@@H]1CCCN1CCCOc1ccc(-c2ccc(N3CCC(O)CC3)nn2)cc1 [Example 9, 1-(6-{4-[3-((R)-2-Methylpyrrolidin-1-yl)-propoxy]phenyl}pyridazin-3-yl)piperidin-4-ol]	< 50 nM	138 to 141 °C
COc1nnc(-c2ccc(OCCCN3CCC[C@H]3C)cc2)c2c1CCC2 [Example 39, 1-Methoxy-4-{4-[3-((R)-2-methylpyrrolidin-1-yl)-propoxy]-phenyl}6,7-dihydro-5H-cyclopenta[d]pyridazine]	< 50 nM	109 °C
CNc1ccc(-c2ccc(OCCCN3CCC[C@H]3C)cc2)nn1 [Example 8, Methyl-(6-{4-[3-((R)-2-methyl-pyrrolidin-1-yl)-propoxy]phenyl}pyridazin-3-yl)amine]	< 50 nM	126 to 129 °C
C[C@@H]1CCCN1CCCOc1ccc(-c2ccc([S+]([O-])Cc3ccccc3)nn2)cc1 (stereo partly drawn) [Example 35, 3-{4-[3-((R)-2-Methylpyrrolidin-1-yl)propoxy]phenyl}-6-phenylmethanesulfinyl-pyridazine]	< 50 nM	
CCNc1ccc(-c2ccc(OCCCN3CCC[C@H]3C)cc2)nn1 [Example 28, Ethyl-(6-{4-[3-((R)-2-methyl-pyrrolidin-1-yl)-propoxy]-phenyl}pyridazin-3-yl)amine]	< 50 nM	
C[C@H](COc1ccc(-c2ccc(Cl)nn2)cc1)CN1CCC[C@H]1C [Example 43, 3-Chloro-6-{4-[(S)-2-methyl-3-((R)-2-methylpyrrolidin-1-yl)propoxy]-phenyl}pyridazine]	< 50 nM	
Cc1ccc(-c2ccc(OCCCN3CCC[C@H]3C)cc2)nn1 [Example 3, 3-Methyl-6-{4-[3-((R)-2-methyl-pyrrolidin-1-yl)-propoxy]-phenyl}pyridazine]	< 50 nM	
c1ccc(COc2ccc(-c3ccc(OCCCN4CCCCC4)cc3)nn2)cc1 [Example 20, 3-Benzyloxy-6-[4-(3-piperidin-1-yl-propoxy)phenyl]pyridazine]	< 50 nM	
